{"source": "PubChem BioAssay AID330", "about": "(DTP/NCI, 2004)", "system": "P388 leukemia ip, CD2F1 mice, survival T/C", "assay": "NCI In Vivo Anticancer Drug Screen. Data for tumor model P388 Leukemia (intraperitoneal) in CD2F1 (CDF1) mice", "settings": "endpoint: median survival time, higher = longer survival", "outline": "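Mice carrying the transplanted tumor received test compound or vehicle. Survival was recorded in each group, and the value is the treated-group measurement divided by that of the vehicle-treated control group.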", "key": {"[1]": {"settings": "dose: 50.0 mg/kg/injection, schedule: Q01DX009 (ip), vehicle: saline with Tween-80"}}, "note": "Several values for one entry are separate records, joined by “and”; a condition that tells them apart may be missing. Equal entries are not always repeated. Toxic doses and inconclusive results are not listed.", "data": [{"smiles": "CC(C)(C)c1ccc(C(O)(C(F)(F)F)C(F)(F)F)cc1", "values": [{"measurement": "T/C", "setting": "dose: 100.0 mg/kg/injection, schedule: Q04DX002 (ip), vehicle: Klucel (hydroxypropylcellulose) (HPC)", "result": "94 % of control"}, {"measurement": "T/C", "setting": "dose: 200.0 mg/kg/injection, schedule: Q04DX002 (ip), vehicle: Klucel (hydroxypropylcellulose) (HPC)", "result": "94 % of control"}, {"measurement": "T/C", "setting": "dose: 400.0 mg/kg/injection, schedule: Q04DX002 (ip), vehicle: Klucel (hydroxypropylcellulose) (HPC)", "result": "109 % of control"}]}, {"smiles": "CCCCOC1OCN(C)CC1(C)C", "note": "(centres undefined)", "values": [{"measurement": "T/C", "setting": "dose: 25.0 mg/kg/injection, schedule: Q01DX009 (ip), vehicle: saline with Tween-80", "result": "98 % of control"}, {"measurement": "T/C", "setting": "[1]", "result": "114 % of control"}]}, {"smiles": "CCO/C=C/C=C1C(=O)N(C)C(=O)N(C)C1=O", "values": [{"measurement": "T/C", "setting": "dose: 25.0 mg/kg/injection, schedule: Q01DX009 (ip), vehicle: saline + Tween-80 + alcohol", "result": "100 % of control and 108 % of control"}, {"measurement": "T/C", "setting": "dose: 50.0 mg/kg/injection, schedule: Q01DX009 (ip), vehicle: saline + Tween-80 + alcohol", "result": "111 % of control and 118 % of control"}, {"measurement": "T/C", "setting": "dose: 100.0 mg/kg/injection, schedule: Q01DX009 (ip), vehicle: saline + Tween-80 + alcohol", "result": "108 % of control and 117 % of control"}, {"measurement": "T/C", "setting": "dose: 200.0 mg/kg/injection, schedule: Q01DX009 (ip), vehicle: saline + Tween-80 + alcohol", "result": "115 % of control and 119 % of control"}, {"measurement": "T/C", "setting": "dose: 400.0 mg/kg/injection, schedule: Q01DX009 (ip), vehicle: saline + Tween-80 + alcohol", "result": "103 % of control"}]}, {"smiles": "COc1cc([C@@H]2c3cc4c(cc3[C@H](O)[C@H]3COC(=O)[C@@H]23)OCO4)cc(OC)c1OC", "values": [{"measurement": "T/C", "setting": "dose: 7.5 mg/kg/injection, schedule: Q01DX010 (ip), vehicle: saline", "result": "109 % of control"}, {"measurement": "T/C", "setting": "dose: 25.0 mg/kg/injection, schedule: Q04DX003 (ip), vehicle: saline sonified", "result": "95 % of control"}, {"measurement": "T/C", "setting": "dose: 30.0 mg/kg/injection, schedule: Q01DX010 (ip), vehicle: saline", "result": "172 % of control"}, {"measurement": "T/C", "setting": "dose: 50.0 mg/kg/injection, schedule: Q04DX003 (ip), vehicle: saline sonified", "result": "112 % of control"}, {"measurement": "T/C", "setting": "dose: 100.0 mg/kg/injection, schedule: Q04DX003 (ip), vehicle: saline sonified", "result": "154 % of control"}]}, {"smiles": "NC(=O)CSc1ncnc2nc[nH]c12", "values": [{"measurement": "T/C", "setting": "dose: 50.0 mg/kg/injection, schedule: Q01DX009 (ip), vehicle: saline", "result": "97 % of control"}, {"measurement": "T/C", "setting": "dose: 100.0 mg/kg/injection, schedule: Q01DX009 (ip), vehicle: saline", "result": "100 % of control"}, {"measurement": "T/C", "setting": "dose: 200.0 mg/kg/injection, schedule: Q01DX009 (ip), vehicle: saline", "result": "102 % of control"}]}, {"smiles": "Cc1ccc(Cl)cc1NC(=O)Nc1nccs1", "values": [{"measurement": "T/C", "setting": "dose: 25.0 mg/kg/injection, schedule: Q01DX009 (ip), vehicle: Klucel (hydroxypropylcellulose) (HPC)", "result": "93 % of control"}, {"measurement": "T/C", "setting": "dose: 50.0 mg/kg/injection, schedule: Q01DX009 (ip), vehicle: Klucel (hydroxypropylcellulose) (HPC)", "result": "92 % of control"}, {"measurement": "T/C", "setting": "dose: 100.0 mg/kg/injection, schedule: Q01DX009 (ip), vehicle: Klucel (hydroxypropylcellulose) (HPC)", "result": "109 % of control"}]}, {"smiles": "Cc1cccc(C(=O)CC[N+](C)(C)C)c1", "values": [{"measurement": "T/C", "setting": "dose: 3.13 mg/kg/injection, schedule: Q01DX009 (ip), vehicle: saline", "result": "111 % of control"}, {"measurement": "T/C", "setting": "dose: 6.25 mg/kg/injection, schedule: Q01DX009 (ip), vehicle: saline", "result": "109 % of control"}, {"measurement": "T/C", "setting": "dose: 12.5 mg/kg/injection, schedule: Q01DX009 (ip), vehicle: saline", "result": "94 % of control"}]}, {"smiles": "CC1=C(C)C(=O)OC(C(C)C2CCC3C4CC5OC56C(O)CCC(=O)C6(C)C4CCC23C)C1", "note": "(centres undefined)", "values": [{"measurement": "T/C", "setting": "dose: 11.3 mg/kg/injection, schedule: Q01DX009 (ip), vehicle: Klucel (hydroxypropylcellulose) (HPC)", "result": "101 % of control"}, {"measurement": "T/C", "setting": "dose: 22.6 mg/kg/injection, schedule: Q01DX009 (ip), vehicle: Klucel (hydroxypropylcellulose) (HPC)", "result": "101 % of control"}, {"measurement": "T/C", "setting": "dose: 45.2 mg/kg/injection, schedule: Q01DX009 (ip), vehicle: Klucel (hydroxypropylcellulose) (HPC)", "result": "100 % of control"}]}, {"smiles": "CCCCCCCCCCCCCCCCCCON", "values": [{"measurement": "T/C", "setting": "dose: 100.0 mg/kg/injection, schedule: Q04DX003 (ip), vehicle: Klucel (hydroxypropylcellulose) (HPC)", "result": "97 % of control"}, {"measurement": "T/C", "setting": "dose: 200.0 mg/kg/injection, schedule: Q04DX003 (ip), vehicle: Klucel (hydroxypropylcellulose) (HPC)", "result": "92 % of control"}, {"measurement": "T/C", "setting": "dose: 400.0 mg/kg/injection, schedule: Q04DX003 (ip), vehicle: Klucel (hydroxypropylcellulose) (HPC)", "result": "94 % of control"}]}, {"smiles": "Oc1c2c(c3cccc4cccc1c43)=Nc1ccccc1S2", "values": [{"measurement": "T/C", "setting": "dose: 50.0 mg/kg/injection, schedule: Q01DX005 (ip), vehicle: saline with Tween-80", "result": "95 % of control"}, {"measurement": "T/C", "setting": "dose: 100.0 mg/kg/injection, schedule: Q01DX005 (ip), vehicle: saline with Tween-80", "result": "94 % of control"}, {"measurement": "T/C", "setting": "dose: 200.0 mg/kg/injection, schedule: Q01DX005 (ip), vehicle: saline with Tween-80", "result": "90 % of control"}]}, {"smiles": "O=C(CNC(=O)Nc1ccc(Cl)c(Cl)c1)N/N=C/c1ccc2c(c1)OCO2", "values": [{"measurement": "T/C", "setting": "[1]", "result": "91 % of control"}, {"measurement": "T/C", "setting": "dose: 100.0 mg/kg/injection, schedule: Q01DX009 (ip), vehicle: saline with Tween-80", "result": "90 % of control"}, {"measurement": "T/C", "setting": "dose: 200.0 mg/kg/injection, schedule: Q01DX009 (ip), vehicle: saline with Tween-80", "result": "89 % of control"}]}, {"smiles": "CCNC(=S)N/N=C\\C=N/NC(=S)NCC", "values": [{"measurement": "T/C", "setting": "dose: 75.0 mg/kg/injection, schedule: Q01DX009 (ip), vehicle: saline with Tween-80", "result": "105 % of control"}, {"measurement": "T/C", "setting": "dose: 150.0 mg/kg/injection, schedule: Q01DX009 (ip), vehicle: saline with Tween-80", "result": "92 % of control"}, {"measurement": "T/C", "setting": "dose: 300.0 mg/kg/injection, schedule: Q01DX009 (ip), vehicle: saline with Tween-80", "result": "103 % of control"}]}]}
